d = 2'-deoxy (DNA); r = 2'-OH (RNA)

Series [1] deals with HepG2 transplanted tumor. The experiment in a line: HepG2 transplanted tumor growth in nude mice. More on the design: species or system BALB/c nude mice. The settings on record: HepG2 xenograft, day 13; saRNA (in vivo-jetPEI) 1 mg/kg intratumor days 1, 4, 7, 10; regorafenib 3 mg/kg intragastric daily day 1-12; vehicle 118%. The procedure:
To prepare the saRNA formulation, the in vivo-jetPEI (201-10G, Polyplus-transfection, France) was adopted as an saRNA delivery system. The preparation process is briefly described as follows. An saRNA was first diluted in 10% glucose solution to obtain a solution A. According to the instructions of the manufacturer, a required amount of in vivo-jetPEI was diluted in 10% glucose solution to obtain a solution B. Equal volumes of the solution A and the solution B were mixed (nitrogen-to-phosphorus ratio: 8; final concentration of glucose: 5%). After mixing, the mixture was let to stand at room temperature for 15 minutes for later use.
HepG2 cells in the logarithmic growth phase were obtained and counted, and then the cell suspension was regulated to 5×10^7 cells/mL and subcutaneously inoculated into the right armpit of BALB/c nude mice at a volume of 0.1 mL per mouse. […] Starting from the initial administration, the long diameter and the short diameter of each tumor were measured with a vernier caliper every two days. The tumor volume was calculated according to the formula V=(l×w^2)/2, wherein 1 represents the longest diameter of the tumor and w represents the diameter parallel to the surface of the tumor and perpendicular to the long diameter. A tumor growth curve and size and morphology of the tumor after anatomy were recorded during the administration.

The test system of series [2] is HepG2 cells. The experiment in a line: saRNA in combination with chemical drugs, CCK-8 viability and combination index (Compusyn), HepG2. Format: cell-based, human. The procedure: The saRNAs were transfected into cancer cells at different concentrations in combination with a panel of chemical drugs. In FIG. 8A, cell viability in the saRNA treatment group was evaluated by the CCK-8 method and recorded as a percentage relative to the viability of cells in a control (Mock) treatment group. In FIG. 8B, Compusyn© version 1.0 software was used to draw a combination index graphs; and to calculate combination index values as shown in FIG. 8C.
The compounds used in the study included: Sorafenib (Sora) (SELLECK, S1040), Lenvatinib (Lenv) (SELLECK, S1164), Regorafenib (Rego) (SELLECK, S1178), and Cabozantinib (Cabo) (SELLECK, S1119). Cells were transfected with each candidate saRNAs at varying concentration gradients for 24 hours. Thereafter, the aforementioned compounds were added to the transfected cells at a concentration of 5 μM and the cells were incubated with the compounds for 48 hours. Cell viability was measured using the CCK-8 method. Compusyn© version 1.0 software (ComboSyn, Inc. Paramus, N.J., USA) was used to analyze the combination index (CI) of drugs, wherein CI<1 represented a synergistic effect, CI=1 represented an additive effect, and CI>1 represented an antagonistic effect.

Series [3] concerns LHPP gene. The experiment in a line: LHPP mRNA expression by RT-qPCR in cancer cell lines. Format: cell-based, human. The settings on record: 72 h. The procedure:
(§1) 8 LHPP promoter-targeting saRNAs were individually transfected into liver cancer cells at 10 nM for 72 h. In FIG. 6A, the expression level of LHPP mRNA was analyzed by RT-qPCR. In FIG. 6B, cell viability in the saRNA treatment group was evaluated by the CCK-8 method and recorded as a percentage relative to the viability of cells in a control (Mock) treatment group.
(§2) 8 LHPP promoter-targeting saRNAs were individually transfected into cancer cells at 10 nM for 72 h. In FIG. 7A, the expression level of LHPP mRNA was analyzed by RT-qPCR. In FIG. 7B, cell viability in the saRNA treatment group was evaluated by the CCK-8 method and recorded as a percentage relative to the viability of cells in a control (Mock) treatment group.
(§3) In order to further evaluate the effect of LHPP saRNAs in inducing the mRNA expression of the LHPP gene and inhibiting the proliferation of cancer cells, eight screened saRNAs (RAG7-132, RAG7-133, RAG7-139, RAG7-177, RAG7-178, RAG7-694, RAG7-707 and RAG7-892) each were transfected into the liver cancer cell lines Huh7 (Medical Cell Resource Center, Tohoku University, Japan), HepG2 (ATCC), Hep3B (ATCC), Li-7 (Medical Cell Resource Center, Tohoku University, Japan) and SK-HEP-1 (ATCC), a lung cancer cell line A549 (ATCC), a bladder cancer cell line T24 (ATCC), a prostatic cancer cell line PC3 (ATCC), and a glioma cell line U87MG (ATCC). The mRNA expression and cell viability of the transfected cells were measured.
On the technique in general: In qPCR the cycle at which signal appears reflects the starting amount.

Series [4] deals with prostatic cancer cell line PC3. The experiment in a line: Cell viability by CCK-8 method, PC3. It counts as cell-based, human. The settings on record: PC3, 10 nM, 72 h, FIG. 7B. The protocol: as §2
(§4) The cell viability was detected by the following CCK-8 method: the cCells were plated into a 96-well plate at 3-5×10^3 cells/well, cultured overnight, and transfected with the oligonucleotide duplexes. After 72 hour of transfection, 10 uL of CCK-8 solution (Dojindo Molecular Technologies) was added into each well. After 1 hour of incubation at 37° C., a microplate reader was used to measure absorbances at 450 nm.
as §3
For orientation: Formazan colour is commonly taken as a measure of viable cells.

Series [5] has as its system Hep3B cells. The experiment in a line: Cell viability by CCK-8 method, Hep3B. Format: cell-based, human. The settings on record: 10 nM, 72 h, FIG. 6B. The protocol: as §1
(§5) The cell viability was detected by the following CCK-8 method: the cCells were plated into a 96-well plate at 3-5×10^3 cells/well, cultured overnight, and transfected with the oligonucleotide duplexes. After 72 hour of transfection, 10 uL of CCK-8 solution (Dojindo Molecular Technologies) was added into each well. After 1 hour of incubation at 37° C., a microplate reader was used to measure absorbances at 450 nm. […]

The subject of series [6] is bladder cancer cell line T24. Description: Cell viability by CCK-8 method, T24. It counts as cell-based, human. As to conditions: T24, 10 nM, 72 h, FIG. 7B. The protocol: as §2, §4, §3
Series [7] has as its system Huh7 cells. The experiment in a line: Cell viability by CCK-8 method, Huh7. It counts as cell-based, human. As to conditions: Huh7, 10 nM, 72 h, FIG. 6B. The procedure:
The 290 saRNAs targeting the LHPP promoter were individually transfected into Huh7 cells, and 72 hour later, one-step RT-qPCR was employed to analyze the expression levels of LHPP mRNA and cell viability was detected by the CCK-8 method.
as §4, §3

Series [8] deals with Li-7 cells. Description: Cell viability by CCK-8 method, Li-7. It counts as cell-based, human. As to conditions: Li-7, 10 nM, 72 h, FIG. 6B. The protocol:
as §1, §5

Turning to “RAG7-133: saRNA duplex; sense GCUCUUUGUCCGCUGAUCUTT (SEQ ID NO: 1), antisense AGAUCAGCGGACAAAGAGCTT (SEQ ID NO: 165) (sugars from the 5' end r19 d2, backbone not given here)”, the “tumor volume increase compared with that at the beginning of treatment” value in series [1] came to 34%. In addition, the “combination index (CI)” value was below 0.3 in series [2] (high dose (25 nM to 100 nM) saRNA with Regorafenib 5 μM), below 1 in series [2] (saRNA with Cabozantinib 5 μM), above 1 in series [2] (saRNA with Lenvatinib 5 μM) and below 1 in series [2] (saRNA with Sorafenib 5 μM). Also, the “expression of LHPP gene (mRNA)” value in series [3] (Hep3B, 10 nM, FIG. 6A) was “induced the expression of LHPP gene to different degrees”; in series [3] (HepG2, 10 nM, FIG. 6A), “induced the expression of LHPP gene to different degrees”; in series [3] (Huh7, 10 nM, FIG. 6A), “induced the expression of LHPP gene to different degrees”; in series [3] (Li-7, 10 nM, FIG. 6A) it was “induced the expression of LHPP gene to different degrees”; in series [3] (PC3, 10 nM, FIG. 7A), “induced the expression of LHPP gene to different degrees”; in series [3] (SK-HEP-1, 10 nM, FIG. 6A) it was “induced the expression of LHPP gene to different degrees”. Also, the “expression of LHPP gene (mRNA)” value in series [3] (T24, 10 nM, FIG. 7A) is “induced the expression of LHPP gene to different degrees”; in series [3] (U87MG, 10 nM, FIG. 7A), “induced the expression of LHPP gene to different degrees”. Further, the “cell proliferation (cell viability, CCK-8)” value in series [4], in series [5], in series [6], in series [7] and in series [8] was “inhibited cell proliferation” throughout.
